Values of other authors in patent EP0972007B1, “DETERGENT COMPOSITIONS” (UNILEVER PLC, priority 1997, dated 1998).

Settings: for Water Solubility (g/100g): grams of solid to form a saturated solution in 100 grams of water at 20°C

SMILES | Water Solubility (g/100g) | solubility in water (at 20°C)
O=P(O)(O)OP(=O)(O)OP(=O)(O)O [Sodium tripolyphosphate anhydrous] | 15 | –
O=BO[O-].[Na+] [Sodium perborate anhydrous] | 3.7 | –
NC(N)=O [Urea] | >100 | exceeding 100 gms per 100ml water
